Experimental data from ChEMBL document CHEMBL3769339, “Synthesis of indole-derived allocolchicine congeners exhibiting pronounced anti-proliferative and apoptosis-inducing properties” (Medchemcomm, 2015).
Calls of active or inactive are those of the source. No cut-off for these calls is given here.

Assays:
BJAB [1] = assay: Antiproliferative activity against human BJAB cells after 24 hrs by CASY cell counting method; assay type: functional, cell-based
BJAB [2] = assay: Induction of apoptosis in human BJAB cells assessed as DNA fragmentation after 72 hrs by flow cytometry; assay type: functional, cell-based
BJAB [3] = assay: Antiproliferative activity against human BJAB cells at AC50 after 24 hrs by CASY cell counting method; assay type: functional
BJAB [4] = assay: Cytotoxicity against human BJAB cells assessed as necrosis at AC50 after 72 hrs by LDH release assay; assay type: cell-based
[5] = Inhibition of sheep tubulin polymerization by fluorescence based assay; design: species or system Ovis aries
BJAB [6] = assay: Antiproliferative activity against human BJAB cells assessed as cell count at 0.01 uM after 24 hrs by CASY cell counting method (reference value: 2.02 10^5/ml); assay type: functional
BJAB [7] = assay: Antiproliferative activity against human BJAB cells assessed as cell count at 0.001 uM after 24 hrs by CASY cell counting method (reference value: 2.02 10^5/ml); assay type: functional
BJAB [8] = assay: Cytotoxicity against human BJAB cells assessed as necrosis at 5 uM after 1 hr by LDH release assay; assay type: cell-based
Ovis aries = organism: Ovis aries; assay: Inhibition of sheep tubulin polymerization at 0.75 to 7.5 uM by fluorescence based assay
BJAB [9] = assay: Antiproliferative activity against human BJAB cells assessed as cell count at 0.005 uM after 24 hrs by CASY cell counting method (reference value: 2.02 10^5/ml); assay type: functional
BJAB [10] = assay: Antiproliferative activity against human BJAB cells assessed as cell count at 0.1 uM after 24 hrs by CASY cell counting method (reference value: 2.02 10^5/ml); assay type: functional
BJAB [11] = assay: Antiproliferative activity against human BJAB cells assessed as cell count at 0.5 uM after 24 hrs by CASY cell counting method (reference value: 2.02 10^5/ml); assay type: functional
BJAB [12] = assay: Antiproliferative activity against human BJAB cells assessed as cell count at 1 uM after 24 hrs by CASY cell counting method (reference value: 2.02 10^5/ml); assay type: functional
BJAB [13] = assay: Antiproliferative activity against human BJAB cells assessed as cell count at 5 uM after 24 hrs by CASY cell counting method (reference value: 2.02 10^5/ml); assay type: functional
BJAB [14] = assay: Antiproliferative activity against human BJAB cells assessed as cell count at 10 uM after 24 hrs by CASY cell counting method (reference value: 2.02 10^5/ml); assay type: functional
BJAB [15] = assay: Antiproliferative activity against human BJAB cells assessed as cell count at 30 uM after 24 hrs by CASY cell counting method (reference value: 2.02 10^5/ml); assay type: functional
BJAB [16] = assay: Antiproliferative activity against human BJAB cells assessed as cell count at 50 uM after 24 hrs by CASY cell counting method (reference value: 2.02 10^5/ml); assay type: functional
BJAB [17] = assay: Antiproliferative activity against human BJAB cells assessed as cell count at 100 uM after 24 hrs by CASY cell counting method (reference value: 2.02 10^5/ml); assay type: functional
BJAB [18] = assay: Antiproliferative activity against human BJAB cells assessed as cell count at 0.05 uM after 24 hrs by CASY cell counting method (reference value: 2.02 10^5/ml); assay type: functional

Structure (SMILES)	Activity (BJAB [1])	IC50 (BJAB [1]) [nM]	AC50 (BJAB [2]) [nM]	Activity (BJAB [2])	inhibition (INH) (BJAB [3]) [%]	Activity (BJAB [4]) [%]	IC50 [5] [nM]	other results
COc1cc2c(c(OC)c1OC)-c1cc3c(ccn3C)cc1C(=O)CC2	Dose-dependent effect	10	50	Dose-dependent effect	98	4		
COc1cc2c(c(OC)c1OC)-c1cc3c(ccn3C)cc1C(NC(C)=O)CC2 (racemic)	Dose-dependent effect	> 100000	> 100000	Dose-dependent effect				
COc1ccc(/C=C\c2cc(OC)c(OC)c(OC)c2)cc1O [COMBRETASTATIN A4]							90	
COc1cc2c(c(OC)c1OC)-c1ccc(OC)c(=O)cc1[C@@H](NC(C)=O)CC2 [COLCHICINE]	Dose-dependent effect	20	30	Dose-dependent effect			375	
COc1cc2c(c(OC)c1OC)-c1cc3c(ccn3C)cc1C(N)CC2 (racemic)	Dose-dependent effect	500	5000	Dose-dependent effect	90	29		
COc1cc2c(c(OC)c1OC)-c1cc3ccn(C)c3cc1C(O)CC2 (racemic)							264	
COc1cc2c(c(OC)c1OC)-c1ccc3c(ccn3C)c1C(O)CC2 (racemic)							228	
COc1cc2c(c(OC)c1OC)-c1cc3c(ccn3C)cc1C(O)CC2 (racemic)	Dose-dependent effect	1	1	Dose-dependent effect	52	7		
COc1cc2c(c(OC)c1OC)-c1cc3c(ccn3C)cc1C(N=[N+]=[N-])CC2 (racemic)	Dose-dependent effect	50000	> 100000	Dose-dependent effect	30	1		
COc1cc2c(c(OC)c1OC)-c1cc3c(ccn3C)cc1C(OC(C)=O)CC2 (racemic)	Dose-dependent effect	10	50	Dose-dependent effect	89	0	125	Activity (BJAB [6]): 1.9 ×10⁵ /ml; Activity (BJAB [7]): 2 ×10⁵ /ml; Activity (BJAB [8]): Non-toxic; inhibition (Ovis aries): Active; Activity (BJAB [9]): 1.87 ×10⁵ /ml; Activity (BJAB [10]): 1.17 ×10⁵ /ml; Activity (BJAB [11]): 1.21 ×10⁵ /ml; Activity (BJAB [12]): 1.09 ×10⁵ /ml; Activity (BJAB [13]): 1.1 ×10⁵ /ml; Activity (BJAB [14]): 1.13 ×10⁵ /ml; Activity (BJAB [15]): 1.12 ×10⁵ /ml; Activity (BJAB [16]): 1.02 ×10⁵ /ml; Activity (BJAB [17]): 0.97 ×10⁵ /ml; Activity (BJAB [18]): 1.11 ×10⁵ /ml
